Measurements: patent US20180050993A1, “NOVEL FLUORINATED DERIVATIVES AS EGFR INHIBITORS USEFUL FOR TREATING CANCERS” (Trillium Therapeutics Inc., priority 2015, published 2018)
Counter-ions that a name gives are not always drawn.

Experiments:
Assay in all cases: NCI screening panel, growth %
Format in all cases: cell-based, human
SNB-75 = conditions: CNS
Description: (§1) After 24 h, two plates of each cell line are fixed in situ with TCA, to represent a measurement of the cell population for each cell line at the time of drug addition (Tz). Experimental drugs are solubilised in dimethyl sulfoxide at 400-fold the desired final maximum test concentration and stored frozen prior to use. At the time of drug addition, an aliquot of frozen concentrate is thawed and diluted to twice the desired final maximum test concentration with complete medium containing 50 μg/ml gentamicin. Additional four, 10-fold or log serial dilutions are made to provide a total of five drug concentrations plus control. Aliquots of 100 μl of these different drug dilutions are added to the appropriate microtiter wells already containing 100 μl of medium, resulting in the required final drug concentrations.
(§2) Following drug addition, the plates are incubated for an additional 48 h at 37° C., 5% CO2, 95% air, and 100% relative humidity. For adherent cells, the assay is terminated by the addition of cold TCA (trichloroacetic acid). Cells are fixed in situ by the gentle addition of 50 μl of cold 50% (w/v) TCA (final concentration, 10% TCA) and incubated for 60 minutes at 4° C. The supernatant is discarded, and the plates are washed five times with tap water and air dried. Sulforhodamine B (SRB) solution (100 μl) at 0.4% (w/v) in 1% acetic acid is added to each well, and plates are incubated for 10 minutes at room temperature. After staining, unbound dye is removed by washing five times with 1% acetic acid and the plates are air dried. Bound stain is subsequently solubilised with 10 mM trizma base, and the absorbance is read on an automated plate reader at a wavelength of 515 nm. For suspension cells, the methodology is the same except that the assay is terminated by fixing settled cells at the bottom of the wells by gently adding 50 μl of 80% TCA (final concentration, 16% TCA). Using the seven absorbance measurements [time zero, […], control growth, (C), and test growth in the presence of drug at the five concentration levels (Ti)], the percentage growth is calculated at each of the drug concentration levels. Percentage growth inhibition is calculated as: [(Ti−Tz)/(C−Tz)]×100 for concentrations in which Ti>/=Tz and [(Ti−Tz)/Tz]×100 for concentrations in which Ti<Tz.
(§3) Three dose response parameters are calculated for each experimental agent. […] The drug concentration resulting in total growth inhibition (TGI) is calculated from Ti=Tz. […] Values are calculated for each of these three parameters if the level of activity is reached. However, if the effect is not reached or is exceeded, the value for that parameter is expressed as greater or less than the maximum or minimum concentration tested.

LOX IMVI = conditions: Melanoma
Description: as §1, §2, §3

HCT-116 = conditions: Colon
Description: as §1, §2, §3

SNB-19 = conditions: CNS
Description: as §1, §2, §3

MOLT-4 = conditions: Leukemia
Description: as §1, §2, §3

M14 = conditions: Melanoma
Description: as §1, §2, §3

NCI-H322M = conditions: NSCLC
Description: as §1, §2, §3

HOP-92 = conditions: NSCLC
Description: as §1, §2, §3

NCI-H23 = conditions: NSCLC
Description: as §1, §2, §3

OVCAR-5 = conditions: Ovarian
Description: as §1, §2, §3

K-562 = conditions: Leukemia
Description: as §1, §2, §3

RXF 393 = conditions: Renal
Description: as §1, §2, §3

BT-549 = conditions: Breast
Description: as §1, §2, §3

SK-OV-3 = conditions: Ovarian
Description: as §1, §2, §3

HL-60(TB) = conditions: Leukemia
Description: as §1, §2, §3

MALME-3M = conditions: Melanoma
Description: as §1, §2, §3

MCF7 = conditions: Breast
Description: as §1, §2, §3

NCI/ADR-RES = conditions: Ovarian
Description: as §1, §2, §3

MDA-MB-468 = conditions: Breast
Description: as §1, §2, §3

HS 578T = conditions: Breast
Description: as §1, §2, §3

## Fc1ccc(Nc2ncnc3cc(OCCOC(F)F)c(OCCOC(F)F)cc23)c(F)c1Cl [Compound 2D•HCl, N-(3-chloro-2,4-difluoro-phenyl)-6,7-bis[2-(difluoromethoxy)ethoxy]quinazolin-4-amine]
SNB-75
  Growth %: 57.99%
LOX IMVI
  Growth %: 52.34%
HCT-116
  Growth %: 81.03%
SNB-19
  Growth %: 75.78%
MOLT-4
  Growth %: 55.03%
M14
  Growth %: 59.47%
NCI-H322M
  Growth %: −7.70%
HOP-92
  Growth %: 39.43%
NCI-H23
  Growth %: 78.31%
OVCAR-5
  Growth %: 26.63%
K-562
  Growth %: 37.37%
RXF 393
  Growth %: 37.95%
BT-549
  Growth %: 93.32%
SK-OV-3
  Growth %: −13.36%
HL-60(TB)
  Growth %: 80.36%
MALME-3M
  Growth %: 73.73%
MCF7
  Growth %: 66.06%
NCI/ADR-RES
  Growth %: 54.63%
MDA-MB-468
  Growth %: −39.62%
HS 578T
  Growth %: 68.48%
